Where two headings read alike, the source gives them in different places.
Columns and labels:
Assay type in all cases: cell-based
α4β7 integrin [1] = molecular target: T1, α4β7 integrin (Homo sapiens (Human), UniProt P13612+P26010); assay: Integrin Adhesion Assay: Protocol 4 (MAdCAM-coated plate, RPMI-8866 cells with stable LOF mutation of the ITGB1 gene); conditions: RPMI-8866 cells with stable LOF mutation of the ITGB1 gene; read-out: Mean IC50 α4β7 KO^a
Outline: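 RPMI-8866 cells with CRISPR/Cas9 knockout of ITGB1 (2×10^6/mL) were added to MAdCAM-coated wells with compound (1% DMSO) in HEPES/NaCl buffer with 1 mM MnCl2, 0.1 mM CaCl2 and 1% BSA, then incubated 1 h at 37 °C. After four washes, adherent cells were quantified by CellTiter-Glo luminescence. Percent inhibition versus DMSO and control compound was fitted to 4-parameter curves.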

α4β7 integrin [2] = molecular target: T1, α4β7 integrin; assay: Integrin Adhesion Assay: Protocol 1 (MAdCAM-coated plate, RPMI-8866 cells, CellTiter GLO readout)
Outline: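 RPMI-8866 cells (2×10^6 per mL) added with compounds (1% DMSO) to MAdCAM-coated wells blocked in HEPES/NaCl buffer with 1 mM MnCl2, 0.1 mM CaCl2, 1% BSA; 1 h at 37° C, 5% CO2. After four washes, bound cells read by CellTiter GLO luminescence; % inhibition vs DMSO and control wells, 4-parameter fit.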

α4β1 integrin = α4β1 integrin (Homo sapiens (Human), UniProt P05556+P13612); assay: Integrin Adhesion Assay: Protocol 5 (VCAM-coated plate, RPMI-8866 cells with stable LOF mutation of the ITGB7 gene)
Outline: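 RPMI-8866 B cells with CRISPR/Cas9 ITGB7 knockout (clonal, verified by flow cytometry) adhered to VCAM-coated wells for 1 h at 37° C in HEPES/NaCl buffer with 1 mM MnCl2, 0.1 mM CaCl2, 1% BSA, 1% DMSO. Bound cells quantified by CellTiter-Glo luminescence after washing; % inhibition versus DMSO and control, 4-parameter fit.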

[3] = RPMI-8866 cells with stable LOF mutation of the ITGB7 gene, read-out: Mean IC50 α4β1 KO^b
[4] = Protocol 5, RPMI-8866 cells with LOF mutation of ITGB7, VCAM, read-out: Mean IC50 α4β1 KO

Sequence of α4β1 integrin (P13612 34-1032): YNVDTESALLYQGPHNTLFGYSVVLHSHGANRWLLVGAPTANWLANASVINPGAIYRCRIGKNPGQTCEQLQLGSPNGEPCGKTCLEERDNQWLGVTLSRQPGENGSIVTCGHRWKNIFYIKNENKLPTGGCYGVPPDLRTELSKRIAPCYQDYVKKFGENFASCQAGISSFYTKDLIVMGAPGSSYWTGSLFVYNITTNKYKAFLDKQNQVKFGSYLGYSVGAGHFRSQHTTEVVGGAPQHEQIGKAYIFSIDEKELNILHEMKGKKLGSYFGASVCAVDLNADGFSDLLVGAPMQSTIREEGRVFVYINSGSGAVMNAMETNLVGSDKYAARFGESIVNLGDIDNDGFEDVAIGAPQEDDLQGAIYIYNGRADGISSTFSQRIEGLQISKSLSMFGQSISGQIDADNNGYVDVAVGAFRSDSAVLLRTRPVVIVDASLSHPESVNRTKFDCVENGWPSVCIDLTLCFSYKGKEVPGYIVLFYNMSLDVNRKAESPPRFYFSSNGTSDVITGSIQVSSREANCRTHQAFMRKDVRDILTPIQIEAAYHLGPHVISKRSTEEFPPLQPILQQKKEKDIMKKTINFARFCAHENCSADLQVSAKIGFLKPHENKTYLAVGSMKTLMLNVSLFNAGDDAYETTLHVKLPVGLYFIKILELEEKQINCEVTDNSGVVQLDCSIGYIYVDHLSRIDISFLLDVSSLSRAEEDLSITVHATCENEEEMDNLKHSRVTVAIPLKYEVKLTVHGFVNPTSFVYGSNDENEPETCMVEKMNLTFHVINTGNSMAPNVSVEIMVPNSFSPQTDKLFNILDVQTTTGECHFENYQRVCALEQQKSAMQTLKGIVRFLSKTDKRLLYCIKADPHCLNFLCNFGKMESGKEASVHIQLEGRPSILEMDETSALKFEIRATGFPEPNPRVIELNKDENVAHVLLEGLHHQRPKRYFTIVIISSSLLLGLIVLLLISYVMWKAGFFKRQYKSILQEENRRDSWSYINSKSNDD
Sequence of α4β1 integrin (P05556 21-798): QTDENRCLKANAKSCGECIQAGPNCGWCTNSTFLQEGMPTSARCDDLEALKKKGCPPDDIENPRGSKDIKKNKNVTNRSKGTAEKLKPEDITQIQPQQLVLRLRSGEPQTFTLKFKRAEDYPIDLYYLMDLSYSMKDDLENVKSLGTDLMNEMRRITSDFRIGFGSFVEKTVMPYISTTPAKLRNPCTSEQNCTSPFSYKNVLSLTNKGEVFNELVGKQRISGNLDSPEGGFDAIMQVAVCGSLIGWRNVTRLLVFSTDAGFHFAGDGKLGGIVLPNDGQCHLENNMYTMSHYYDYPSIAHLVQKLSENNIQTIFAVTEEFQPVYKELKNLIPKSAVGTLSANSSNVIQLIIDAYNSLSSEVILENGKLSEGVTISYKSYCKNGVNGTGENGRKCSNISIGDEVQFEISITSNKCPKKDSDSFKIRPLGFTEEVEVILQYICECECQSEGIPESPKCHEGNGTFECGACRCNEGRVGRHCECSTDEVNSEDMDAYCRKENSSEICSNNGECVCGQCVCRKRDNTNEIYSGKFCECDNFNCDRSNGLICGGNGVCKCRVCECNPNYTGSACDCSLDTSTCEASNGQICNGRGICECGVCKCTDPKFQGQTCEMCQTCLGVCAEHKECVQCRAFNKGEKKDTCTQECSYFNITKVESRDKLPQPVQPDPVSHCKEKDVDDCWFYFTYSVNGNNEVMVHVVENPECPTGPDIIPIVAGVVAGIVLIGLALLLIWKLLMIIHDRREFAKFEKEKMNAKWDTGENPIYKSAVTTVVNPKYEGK
T1 sequence (P13612 34-1032): as the sequence (P13612 34-1032) above
T1 sequence (P26010 20-798): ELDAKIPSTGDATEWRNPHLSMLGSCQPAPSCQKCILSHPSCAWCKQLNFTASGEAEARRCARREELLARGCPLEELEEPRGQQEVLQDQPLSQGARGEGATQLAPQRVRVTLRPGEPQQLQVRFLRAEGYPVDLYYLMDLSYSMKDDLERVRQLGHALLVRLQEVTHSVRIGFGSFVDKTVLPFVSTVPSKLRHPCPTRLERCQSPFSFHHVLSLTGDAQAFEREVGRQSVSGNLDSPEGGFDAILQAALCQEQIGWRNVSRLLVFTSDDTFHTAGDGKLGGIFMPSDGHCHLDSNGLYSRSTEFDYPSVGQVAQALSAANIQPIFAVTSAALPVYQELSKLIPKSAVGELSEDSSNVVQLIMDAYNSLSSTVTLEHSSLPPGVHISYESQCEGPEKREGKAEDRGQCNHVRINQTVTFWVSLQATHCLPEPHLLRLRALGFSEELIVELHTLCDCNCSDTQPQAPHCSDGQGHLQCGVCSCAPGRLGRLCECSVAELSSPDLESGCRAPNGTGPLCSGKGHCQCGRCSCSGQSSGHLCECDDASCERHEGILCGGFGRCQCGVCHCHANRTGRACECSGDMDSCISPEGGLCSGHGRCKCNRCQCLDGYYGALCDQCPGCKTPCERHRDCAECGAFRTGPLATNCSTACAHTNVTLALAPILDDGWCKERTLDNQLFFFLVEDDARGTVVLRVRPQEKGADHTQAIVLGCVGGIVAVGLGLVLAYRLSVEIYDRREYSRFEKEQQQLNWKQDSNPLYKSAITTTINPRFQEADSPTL

| Structure (SMILES) | IC50 (α4β7 integrin [1]) [nM] | IC50 (α4β7 integrin [2]) [nM] | IC50 (α4β1 integrin; [3]) [nM] | IC50 (α4β1 integrin; [4]) [nM] | IC50 (α4β7 integrin [2]; protocol not given) [nM] |
| --- | --- | --- | --- | --- | --- |
| CN(C)c1ccc2c(c1)c(C(F)(F)F)c(-c1cccc3c(C[C@H](NC(=O)[C@]4(C)CC[C@H](N5CCOC[C@@H]5C(F)(F)F)CC4)C(=O)O)cccc13)c(=O)n2C (single isomer, unassigned) [Compound 410] | 100 to 1000 | 100 to 1000 | – | – | – |
| CC[C@@](Cc1cccs1)(C(=O)N[C@@H](Cc1cccc2c(-c3c(C(F)(F)F)ccn(C)c3=O)nccc12)C(=O)O)c1ccccc1 [Compound 291] | 100 to 1000 | 100 to 1000 | – | – | – |
| CC[C@@](Cc1cccs1)(C(=O)N[C@@H](Cc1cccc2c(-n3c(=O)ccn(C)c3=O)cccc12)C(=O)O)c1ccccc1 [Compound 292] | 100 to 1000 | 100 to 1000 | – | – | – |
| Cc1cc(N2CCOC[C@@H]2C(F)(F)F)cc(F)c1C(=O)N[C@@H](Cc1cccc2c(-c3c(C(F)(F)F)c4ccccc4n(C)c3=O)cccc12)C(=O)O [Compound 361] | – | 10 to 100 | > 1000 | – | – |
| Cn1c(=O)c(-c2cccc3c(C[C@H](NC(=O)C4(C)CCN(C5CCOCC5)CC4)C(=O)O)cccc23)c(C(F)(F)F)c2ccccc21 [Compound 362] | – | 10 to 100 | > 1000 | – | – |
| Cn1c(=O)c(-c2cccc3c(C[C@H](NC(=O)C4(C)CCN(C5COC5)CC4)C(=O)O)cccc23)c(C(F)(F)F)c2ccccc21 [Compound 363] | – | 10 to 100 | > 1000 | – | – |
| CN(c1cc(F)c(C(=O)N[C@@H](Cc2cccc3c(-c4c(C(F)(F)F)c5ccccc5n(C)c4=O)cccc23)C(=O)O)c(F)c1)C1COC1 [Compound 364] | – | 100 to 1000 | > 1000 | – | – |
| CO[C@H](C)c1cc(F)c(C(=O)N[C@@H](Cc2cccc3c(-c4c(C(F)(F)F)c5ccccc5n(C)c4=O)cccc23)C(=O)O)c(F)c1 [Compound 375] | – | 100 to 1000 | > 1000 | – | – |
| Cn1c(=O)c(-c2cccc3c(C[C@H](NC(=O)c4c(F)cc(NC5COC5)cc4F)C(=O)O)cccc23)c(C(F)(F)F)c2ccccc21 [Compound 378] | – | 10 to 100 | > 1000 | – | – |
| Cn1c(=O)c(-c2cccc3c(C[C@H](NC(=O)c4c(F)cc(N(CC(F)(F)F)C5COC5)cc4F)C(=O)O)cccc23)c(C(F)(F)F)c2ccccc21 [Compound 380] | – | 10 to 100 | > 1000 | – | – |
| Cn1c(=O)c(-c2cccc3c(C[C@H](NC(=O)c4c(F)cc(C5CCC(F)(F)CC5)cc4F)C(=O)O)cccc23)c(C(F)(F)F)c2ccccc21 [Compound 381] | – | 100 to 1000 | > 1000 | – | – |
| COCCN(C)c1cc(F)c(C(=O)N[C@@H](Cc2cccc3c(-c4c(C(F)(F)F)c5ccccc5n(C)c4=O)cccc23)C(=O)O)c(F)c1 [Compound 384] | – | 100 to 1000 | > 1000 | – | – |
| COCCN(CC(F)(F)F)c1cc(F)c(C(=O)N[C@@H](Cc2cccc3c(-c4c(C(F)(F)F)c5ccccc5n(C)c4=O)cccc23)C(=O)O)c(F)c1 [Compound 385] | – | 10 to 100 | > 1000 | – | – |
| Cn1c(=O)c(-c2cccc3c(C[C@H](NC(=O)c4c(F)cc(N(CCC(F)(F)F)C5COC5)cc4F)C(=O)O)cccc23)c(C(F)(F)F)c2ccccc21 [Compound 392] | – | 10 to 100 | > 1000 | – | – |
| COCCN(c1cc(F)c(C(=O)N[C@@H](Cc2cccc3c(-c4c(C(F)(F)F)c5ccccc5n(C)c4=O)cccc23)C(=O)O)c(F)c1)C1COC1 [Compound 393] | – | 10 to 100 | > 1000 | – | – |
| Cn1c(=O)c(-c2cccc3c(C[C@H](NC(=O)c4c(F)cc(N(C5COC5)C5COC5)cc4F)C(=O)O)cccc23)c(C(F)(F)F)c2ccccc21 [Compound 397] | – | 100 to 1000 | > 1000 | – | – |
| Cn1c(=O)c(-c2cccc3c(C[C@H](NC(=O)[C@]4(C)CC[C@@H](N5CCC(F)(F)CC5)CC4)C(=O)O)cccc23)c(C(F)(F)F)c2ccccc21 [Compound 401] | – | 10 to 100 | > 1000 | – | – |
| Cn1c(=O)c(-c2cccc3c(C[C@H](NC(=O)[C@]4(C)CC[C@H](N5CCC(F)(F)CC5)CC4)C(=O)O)cccc23)c(C(F)(F)F)c2ccccc21 [Compound 402] | – | > 1000 | > 1000 | – | – |
| Cn1c(C(F)(F)F)cc(C(F)(F)F)c(-c2cccc3c(C[C@H](NC(=O)[C@]4(C)CC[C@@H](N5CCOC[C@@H]5C(F)(F)F)CC4)C(=O)O)cccc23)c1=O [Compound 407] | – | 10 to 100 | > 1000 | – | – |
| Cn1c(C(F)(F)F)cc(C(F)(F)F)c(-c2cccc3c(C[C@H](NC(=O)[C@]4(C)CC[C@H](N5CCOC[C@@H]5C(F)(F)F)CC4)C(=O)O)cccc23)c1=O [Compound 408] | – | 10 to 100 | > 1000 | – | – |
| CN(C)c1ccc2c(c1)c(C(F)(F)F)c(-c1cccc3c(C[C@H](NC(=O)[C@]4(C)CC[C@H](N5CCC(F)(F)CC5)CC4)C(=O)O)cccc13)c(=O)n2C [Compound 412] | – | > 1000 | > 1000 | – | – |

| Structure (SMILES) | IC50 (α4β7 integrin [1]) [nM] | IC50 (α4β7 integrin [2]) [nM] | IC50 (α4β1 integrin; [3]) [nM] | IC50 (α4β1 integrin; [4]) [nM] | IC50 (α4β7 integrin [2]; protocol not given) [nM] |
| --- | --- | --- | --- | --- | --- |
| Cn1c(=O)c(-c2cccc3c(C[C@H](NC(=O)C4(C)CCN([C@H]5CCOC5)CC4)C(=O)O)cccc23)c(C(F)(F)F)c2ccccc21 [Compound 413] | – | 10 to 100 | > 1000 | – | – |
| Cn1c(=O)c(-c2cccc3c(C[C@H](NC(=O)C4(C)CCN([C@@H]5CCOC5)CC4)C(=O)O)cccc23)c(C(F)(F)F)c2ccccc21 [Compound 414] | – | < 10 | > 1000 | – | – |
| CO[C@@H](C)c1cc(F)c(C(=O)N[C@@H](Cc2cccc3c(-c4c(C(F)(F)F)c5ccccc5n(C)c4=O)cccc23)C(=O)O)c(F)c1 [Compound 415] | – | 100 to 1000 | > 1000 | – | – |
| CN(C)Cc1cccc2c(-c3cccc4c(C[C@H](NC(=O)[C@]5(C)CC[C@@H](N6CCOC[C@@H]6C(F)(F)F)CC5)C(=O)O)cccc34)nccc12 [Compound 418] | – | < 10 | > 1000 | – | – |
| CN(C)Cc1cccc2c(-c3cccc4c(C[C@H](NC(=O)C5(C)CCN(CC(F)(F)F)CC5)C(=O)O)cccc34)nccc12 [Compound 420] | – | 10 to 100 | > 1000 | – | – |
| CN(C)Cc1cccc2c(-c3cccc4c(C[C@H](NC(=O)[C@]5(C)CC[C@H](N6CCC(F)(F)CC6)CC5)C(=O)O)cccc34)nccc12 [Compound 424] | – | < 10 | > 1000 | – | – |
| Cn1c(C(F)(F)F)cc(C(F)(F)F)c(-c2cccc3c(C[C@H](NC(=O)C4(C(F)(F)F)CCN(CC(F)(F)F)CC4)C(=O)O)cccc23)c1=O [Compound 431] | – | < 10 | 100 to 1000 | – | – |
| Cn1ccc(C(F)(F)F)c(-c2cccc3c(C[C@H](NC(=O)c4c(F)cc(N5CCOc6ccccc65)cc4F)C(=O)O)cccc23)c1=O [Compound 439] | – | 10 to 100 | > 1000 | – | – |
| Cn1ccc(C(F)(F)F)c(-c2cccc3c(C[C@H](NC(=O)c4c(F)cc(N5CCOC(CN6CCCC6)C5)cc4F)C(=O)O)cccc23)c1=O (stereo partly shown) [Compound 440] | – | 10 to 100 | > 1000 | – | – |
| CN(C)Cc1cc(-c2cccc3c(C[C@H](NC(=O)c4c(F)cc(N5CCOC[C@@H]5C(F)(F)F)cc4F)C(=O)O)cccc23)c2cnccc2c1 [Compound 445] | – | < 10 | > 1000 | – | – |
| CN(C)Cc1ccc2c(-c3cccc4c(C[C@H](NC(=O)c5c(F)cc(N6CCOC[C@@H]6C(F)(F)F)cc5CN5CCOCC5)C(=O)O)cccc34)nccc2c1 [Compound 557] | – | < 10 | > 1000 | – | – |
| CN(C)Cc1ccc2c(-c3cccc4c(C[C@H](NC(=O)[C@]5(C)CC[C@@H](N6CCOC[C@@H]6C(F)(F)F)CC5)C(=O)O)cccc34)nccc2c1 [Compound 581] | – | 10 to 100 | > 1000 | – | – |
| CN(C)Cc1ccc2c(-c3cccc4c(C[C@H](NC(=O)[C@]5(C)CC[C@H](N6CCOC[C@@H]6C(F)(F)F)CC5)C(=O)O)cccc34)nccc2c1 [Compound 582] | – | 10 to 100 | > 1000 | – | – |
| CN(C)Cc1ccc2c(-c3cccc4c(C[C@H](NC(=O)C5(C)CCN(CC(F)(F)F)CC5)C(=O)O)cccc34)nccc2c1 [Compound 583] | – | 10 to 100 | > 1000 | – | – |
| CN(C)Cc1ccc2c(-c3cccc4c(C[C@H](NC(=O)[C@]5(C)CC[C@@H](N6CCC(F)(F)CC6)CC5)C(=O)O)cccc34)nccc2c1 [Compound 585] | – | < 10 | > 1000 | – | – |
| CN(C)Cc1ccc2c(c1)c(C(F)(F)F)c(-c1cccc3c(C[C@H](NC(=O)c4c(F)cc(N5CCOC[C@@H]5C(F)(F)F)cc4F)C(=O)O)cccc13)c(=O)n2C [Compound 698] | – | – | – | 100 to 1000 | < 10 |
| CN(C)CCc1ccc2c(c1)c(C(F)(F)F)c(-c1cccc3c(C[C@H](NC(=O)c4c(F)cccc4F)C(=O)O)cccc13)c(=O)n2C [Compound 705] | – | – | – | 100 to 1000 | < 10 |
| CN(C)CCc1ccc2c(c1)c(C(F)(F)F)c(-c1cccc3c(C[C@H](NC(=O)c4c(F)cc(N5CCOC[C@@H]5C(F)(F)F)cc4F)C(=O)O)cccc13)c(=O)n2C [Compound 708] | – | – | – | 100 to 1000 | < 10 |
| O=C(N[C@@H](Cc1cccc2c(-n3c(C(F)(F)F)cccc3=O)cccc12)C(=O)O)c1c(F)cccc1F [Compound 1040] | – | – | – | > 1000 | 10 to 100 |
| Cc1cccc(C)c1-c1cc(F)c(C(=O)N[C@@H](Cc2cccc3c(-n4c(=O)cc(CCN5CC(F)C5)n(C)c4=O)cccc23)C(=O)O)c(F)c1 [Compound 1057] | – | – | – | > 1000 | 10 to 100 |
